The nature of series [1]: In vitro cytotoxicity analysis (CellTiter-Glo), HepG2. To be noted: human, HepG2 cells. How it is done:
(§1) In all, 1% DMSO was used as a negative control. The inhibition of each drug was normalized to that of the DMSO control. EC50 was calculated by GraphPad Prism. Three independent assays with two technical replicates each time were conducted in this experiment.

The next series concerns HepG2 cells. The description is as above. On the procedure: as §1
Series [2] deals with P. falciparum clinical isolates 6218 and 6320. Nature of the series: Ring-stage survival assay (RSA), isolates 6218 and 6320. To be noted: 700 nM, isolates 6218 and 6320. The format is cell-based, Plasmodium falciparum. How it is done:
An RSA was performed as described previously[65] to evaluate the activity of JX21108 against the artemisinin- and piperaquine-resistant P. falciparum clinical isolates 6218 and 6320[43]. Briefly, parasites were highly synchronized at 0–3 hpi by a 60%/40%-Percoll gradient[66] followed by 5% D-sorbitol[67] treatment after 3 h. The parasite suspension (0.5%–1% parasitemia, 2% hematocrit) was incubated with compounds at 700 nM in a total volume of 2 mL in a 48-well plate for 6 h. After that, the culture mixture was washed three times with 15 mL of CM before another 66 h of cultivation with CM. A Giemsa-stained blood smear was made after cultivation. Parasitemia was counted from at least 10,000 RBCs by microscopy. The survival rate was calculated as the percentage of that in DMSO control. DHA at a concentration of 700 nM served as a positive control.

Series [3] is described as follows: Pharmacokinetic assay in mice. Particulars: 5 mg/kg i.p. The format is in vivo, BALB/c mice. How it is done: Five female BALB/c mice (6–8 weeks, 18–19 g) per group were purchased from JH Laboratory Animal Co., Ltd. All mice were raised at controlled temperature and humidity and had free access to food and water. Compounds were dissolved in 5% DMSO and diluted with 20% aqueous 2-hydroxypropyl-β-cyclodextrin solution to a stock concentration of 0.5 mg/mL. Each mouse was i.p. injected with the compound solution at a dose of 5 mg/kg. Blood samples collected by anticoagulant (K2EDTA)-containing tubes at 0.25, 0.5, 1, 2, 4, 8, and 24 h after injection were centrifuged at 2000× g at 4 °C for 5 min to obtain plasma. LC-MS/MS analysis of samples was carried out by an ACQUITY UPLC HSS T3 1.8-μm column. The mobile phase was a mixture of phase A (0.1% formic acid in water) and phase B (0.1% formic acid in acetonitrile), which ran in gradient mode at a flow rate of 0.6 mL/min at 60 °C. Mass spectra were obtained on an API6500 triple quadrupole equipped with an ESI source. Propranolol was used as an internal standard. The plasma concentrations of the compounds were analyzed, and the pharmacokinetic parameters were calculated via WinNonlin.

A further series deals with P. yoelii. The series is described as follows: In vivo blood-stage inhibition assay. Further details: species or system Plasmodium yoelii in BALB/c mice. On the procedure: Experiment 1: Five female BALB/c mice (6 weeks, 18 g) from each experimental group were infected with 1 × 10^5 rodent malaria parasite P. yoelii via intraperitoneal (i.p) injection. After 24 h, the mice were treated with 30, 60, or 90 mg/kg/day JX21108 via i.p injection and 20 mg/kg/day piperaquine phosphate (PPQ) as a positive control for 5 days. DMSO (5%) was used as a blank control.
Experiment 2: To analyze the differences in drug potency between racemic and enantiopure forms of JX21108, five female BALB/c mice (6 weeks, 18 g) per group were treated with 60 mg/kg/day (+)-JX21108, (−)-JX21108, or JX21108 as described above. Blood smears were made daily from the blood of veins and stained by Giemsa. Parasitemia was counted from at least 5000 RBCs by microscopy. The bodyweight of the mice and the number of deaths were recorded daily. All the graphs were generated by GraphPad Prism. All experimental procedures followed the National Institutes of Health Guide for the Care and Use of Laboratory Animals, as well as the guidelines of the Animal Welfare and Committee of Institut Pasteur of Shanghai, Chinese Academy of Science, IACUC issue No. A2018009.

In series [4] the test system is P. falciparum NF54 stage II gametocytes. Nature of the series: In vitro gametocyte inhibition assay, stage II. To be noted: NF54 luciferase line, 48 h exposure. The format is cell-based, Plasmodium falciparum. How it is done: To test the activities of JX21108 against different gametocyte stages, the P. falciparum producer NF54^p230p-luc was utilized, as described previously. […] Luciferase intensity based on luciferase expression was detected as described above. The EC50 was calculated by GraphPad Prism. DMSO (1%) was used as a negative control.

The subject of another series is 3D7^HDA1-glmS. Nature of the series: Sensitivity of transgenic parasites to JX21108, 3D7^HDA1-glmS. The format is cell-based. Particulars: Plasmodium falciparum, 3D7, 4 h, read-out: EC50 for 3D7^HDA1-glmS. How it is done: Highly synchronized schizont-stage parasites were prepared and treated as described above, with adjustments. […] After washing, parasites were cultured in new CM for another 68 h. Parasite growth was monitored by SYBR Green I staining, as described above. The EC50 was calculated by GraphPad Prism.

The next series concerns the target T1, hHDAC3 (Homo sapiens, UniProt O15379).
T1 construct: purchased BPS Bioscience 50003
Nature of the series: Human HDAC inhibition assay, hHDAC3. The format is biochemical. Particulars: performed only once; read-out: Inhibitory Activity IC50, hHDAC3. How it is done: (§2) SAHA and suramin were used as positive controls. The tested compounds were dissolved into 20 mM stock in 100% DMSO. […] Ten microliters of trypsin and Ac-peptide substrate/Tris buffer solution were added to start the reaction, followed by a 1-h incubation at room temperature for HDACs 1–3 and 6. Ten microliters of Ac-peptide substrate/Tris buffer solution was added to start the reaction, followed by a 4-h incubation at room temperature and a further 2-h incubation with trypsin solution for HDAC8 and Sirt 2. […] This experiment was performed only once.

Another series has as its target T2, hHDAC6 (Homo sapiens, UniProt Q9UBN7).
T2 construct: purchased BPS Bioscience 50046
The series is described as follows: Human HDAC inhibition assay, hHDAC6. The format is biochemical. Particulars: performed only once; read-out: Inhibitory Activity IC50, hHDAC6. On the procedure: as §2

A further series deals with human HDACs. The series is described as follows: Human HDAC inhibition assay, summary. The format is biochemical. How it is done: as §2
Setting [5] is: female, BALB/c, mouse, plasma, ip.
Where [6] appears, read: 30 mg/kg and 60 mg/kg treatment groups, i.p., 5 days.

The structures appear in SMILES notation. Where “and” joins values, the source holds several entries; their conditions need not be identical. Equal entries are not always repeated.

T1 sequence (O15379 whole entry): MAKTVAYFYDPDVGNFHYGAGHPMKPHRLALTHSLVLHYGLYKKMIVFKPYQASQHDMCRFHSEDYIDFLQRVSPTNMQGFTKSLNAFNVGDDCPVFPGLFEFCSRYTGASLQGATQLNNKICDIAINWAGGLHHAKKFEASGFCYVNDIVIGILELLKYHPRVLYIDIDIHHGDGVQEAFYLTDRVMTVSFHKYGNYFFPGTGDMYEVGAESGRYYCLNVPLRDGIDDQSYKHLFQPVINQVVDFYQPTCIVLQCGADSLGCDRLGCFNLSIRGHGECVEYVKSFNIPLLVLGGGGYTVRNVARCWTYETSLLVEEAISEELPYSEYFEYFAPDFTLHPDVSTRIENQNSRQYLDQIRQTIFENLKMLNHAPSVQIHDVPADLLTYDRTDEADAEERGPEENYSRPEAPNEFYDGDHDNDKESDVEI
T1 sequence (Q9Y618 395-489 partner limits assumed): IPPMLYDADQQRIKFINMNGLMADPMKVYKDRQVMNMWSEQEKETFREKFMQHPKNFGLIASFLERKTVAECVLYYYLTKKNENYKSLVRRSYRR
T2 sequence (Q9UBN7 whole entry): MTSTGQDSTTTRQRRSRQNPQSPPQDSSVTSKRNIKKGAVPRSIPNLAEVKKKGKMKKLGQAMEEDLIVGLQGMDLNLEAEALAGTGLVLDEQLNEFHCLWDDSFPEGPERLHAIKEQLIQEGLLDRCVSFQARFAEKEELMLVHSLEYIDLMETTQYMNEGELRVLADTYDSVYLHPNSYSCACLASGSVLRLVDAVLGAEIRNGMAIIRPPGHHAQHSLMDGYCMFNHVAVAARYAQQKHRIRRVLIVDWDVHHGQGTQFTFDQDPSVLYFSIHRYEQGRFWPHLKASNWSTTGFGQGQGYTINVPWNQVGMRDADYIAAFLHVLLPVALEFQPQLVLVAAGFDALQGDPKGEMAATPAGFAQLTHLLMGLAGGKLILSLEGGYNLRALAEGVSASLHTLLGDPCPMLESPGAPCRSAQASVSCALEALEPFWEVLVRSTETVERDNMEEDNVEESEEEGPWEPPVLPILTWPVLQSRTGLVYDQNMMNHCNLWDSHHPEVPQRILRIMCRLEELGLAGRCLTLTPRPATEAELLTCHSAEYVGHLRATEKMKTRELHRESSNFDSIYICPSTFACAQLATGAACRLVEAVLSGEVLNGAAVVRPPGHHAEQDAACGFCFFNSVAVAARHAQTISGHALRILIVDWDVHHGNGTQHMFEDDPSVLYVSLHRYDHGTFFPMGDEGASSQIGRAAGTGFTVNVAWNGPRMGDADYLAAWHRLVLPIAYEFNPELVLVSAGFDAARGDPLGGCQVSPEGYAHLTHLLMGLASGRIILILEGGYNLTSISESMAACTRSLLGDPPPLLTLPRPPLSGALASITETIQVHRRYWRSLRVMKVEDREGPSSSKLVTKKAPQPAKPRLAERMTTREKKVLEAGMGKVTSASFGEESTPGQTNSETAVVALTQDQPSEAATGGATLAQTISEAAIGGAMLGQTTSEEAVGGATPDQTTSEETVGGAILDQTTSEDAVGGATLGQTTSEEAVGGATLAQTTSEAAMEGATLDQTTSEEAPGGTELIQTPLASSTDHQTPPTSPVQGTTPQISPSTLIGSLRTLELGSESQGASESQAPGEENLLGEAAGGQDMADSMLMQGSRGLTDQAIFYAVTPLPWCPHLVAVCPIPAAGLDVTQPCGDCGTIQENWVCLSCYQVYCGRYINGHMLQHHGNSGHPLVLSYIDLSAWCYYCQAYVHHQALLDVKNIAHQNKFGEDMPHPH

By EC50 is commonly meant the concentration that produces a half-maximal response. For orientation: AUC(0-inf) means total exposure, with the tail of the curve extrapolated. What is called AUC(0-t) is exposure summed from dosing to a finite time, without extrapolation to infinity. In general, half-life refers to the time needed for the level to fall by half in the phase considered. Higher therefore signals slow decline. As usually defined, the Cmax is the maximum level reached in the sampled fluid or tissue. Usually Tmax stands for the time at which the peak concentration occurs. Usually IC50 stands for the concentration that inhibits the measured activity by half. On to `Cl.Cn1cc(CN2CCC3(CCN(c4ncc(C(=O)NO)cn4)C3)C2)c2cc(C#N)ccc21` (stereo not drawn) [JX21108], for which a half-maximal effect in series [1] (EC50 at 72 h) was put at 3820 ± 145 nM. Also, the “Selectivity index for HepG2 (EC50 HepG2/EC50 3D7)” value with HepG2 cells is ~ 1060 and 1069 and 1060. Also, in series [2], the “RSA effect on ring-stage parasites” value is “greatly inhibited parasite growth at ring stage of 6218 and 6320”. The V/F in [3] is on record as 15.4 L/kg. Further, in series [3] (setting [5]), the AUC(0-inf) came to 434 ng·h/mL, the AUC(0-t) was 432 ng·h/mL and the half-life was 55.6 min. In addition, the CL/F in series [3] (female, BALB/c, mouse, plasma, ip, read-out: CL/F (converted)) is 192 mL/min/kg. Besides, the Cmax in [3] (female, BALB/c, mouse, plasma, ip, read-out: Cmax) was determined as 511 ng/mL. Also, the Tmax in [3] (female, BALB/c, mouse, plasma, ip, read-out: Tmax) amounted to 15 min. In the series with P. yoelii (setting [6]), the “day on which parasites were completely cleaned up” value stood at 17 days and the “day till which parasites were detected” value is 8 days. Further, the relapse of malaria result in the series on P. yoelii (90 mg/kg treatment group, i.p., 5-day treatment) was “no relapse of malaria was observed”. In addition, the “survival of infected mice” value with P. yoelii (JX21108-treated groups 30–90 mg/kg) is listed as “all the mice survived”. Further, in the series with P. yoelii (all doses tested (30–90 mg/kg), i.p., 5 days), the “in vivo antiplasmodial activity in P. yoelii-infected mice” value is on record as “strong in vivo antiplasmodial activity”. The response in series [4] was half-maximal at 38.8 ± 17.8 nM (EC50). This molecule gave an EC50 in [4] (Plasmodium falciparum, NF54, 48 h) of 38.8 ± 17.8 nM. Moreover, the EC50 in the series with 3D7^HDA1-glmS stood at 210 ± 25 nM. For the same molecule, the IC50 on hHDAC3 worked out at 19 nM. Further, the IC50 on hHDAC6 is 66 nM. Also, the “lower inhibitory activity on human HDACs than quisinostat” value in the series on human HDACs is reported as “approximately 4 fold”.

Values taken from PMC7733455, “A novel multistage antiplasmodial inhibitor targeting Plasmodium falciparum histone deacetylase 1” (Cell Discovery, 2020).
